Measurements reported in ChEMBL document CHEMBL3046461, “Synthesis and herbicidal activity of sulfonanilides having a pyrimidinyl-containing group at the 2-position” (J Pestic Sci, 2011).

Experiments:
[1] = test system: Echinochloa oryzicola; assay: Herbicidal activity against Echinochloa oryzicola assessed as induction of crop damage after 28 days post compound application; assay type: functional
[2] = test system: Oryza sativa; assay: Phytotoxicity against two-leaf stage paddy Oryza sativa (rice) seedlings assessed as induction of crop damage after 28 days post compound application; assay type: organism-based; settings: in vivo, 672 h
[3] = test system: Schoenoplectiella juncoides; assay: Herbicidal activity against Schoenoplectiella juncoides subsp. Hotarui (Ohwi) T. Koyama assessed as induction of crop damage after 28 days post compound application; assay type: functional
[4] = test system: Pontederia vaginalis; assay: Herbicidal activity against Monochoria vaginalis assessed as induction of crop damage after 28 days post compound application; assay type: functional

Row | SMILES | ED20 [1] [gAi/ha] | ED20 [2] [gAi/ha] | ED90 [3] [gAi/ha] | ED90 [4] [gAi/ha]
1 | COc1cc(OC)nc(C(O)c2ccccc2NS(=O)(=O)CF)n1 (stereo unspecified) | 63 | 63 | 16 | 16
2 | COc1ccc(NS(=O)(=O)C(F)F)c(C(O)c2nc(OC)cc(OC)n2)c1 (stereo unspecified) | >1000 | 63 | >1000 | 250
3 | COc1ccc(C(O)c2nc(OC)cc(OC)n2)c(NS(=O)(=O)C(F)F)c1 (stereo unspecified) | 16 | 16 | 63 | 16
4 | C/C=N/OC(c1nc(OC)cc(OC)n1)c1ccccc1NS(=O)(=O)C(F)(F)F (stereo unspecified) | 1000 | 63 | 16 | 63
5 | CCS(=O)(=O)C(c1nc(OC)cc(OC)n1)c1ccccc1NS(=O)(=O)C(F)(F)F (stereo unspecified) | >1000 | 1000 | 250 | 250
6 | COc1cc(OC)nc(C(O)c2ccccc2NS(=O)(=O)c2ccccc2)n1 (stereo unspecified) | >1000 | 1000 | >1000 | 1000
7 | COc1cc(OC)nc(C(O)c2ccccc2NS(=O)(=O)C(C)C)n1 (stereo unspecified) | >1000 | 1000 | >1000 | 1000
8 | COc1cc(OC)nc(C(=O)c2ccccc2NS(=O)(=O)C(F)(F)F)n1 | 1000 | 63 | 16 | 16
9 | CCSC(c1nc(OC)cc(OC)n1)c1ccccc1NS(=O)(=O)C(F)(F)F (stereo unspecified) | 1000 | 63 | 4 | 16
10 | COc1cc(OC)nc(C(O)c2ccccc2NS(=O)(=O)C(F)(F)F)n1 (stereo unspecified) | 1000 | 63 | 4 | 4
11 | COc1cc(OC)nc(C(OC(C)=O)c2ccccc2NS(=O)(=O)C(F)(F)F)n1 (stereo unspecified) | >1000 | 63 | 4 | 16
12 | COc1cc(OC)nc(C(O)c2ccccc2NS(N)(=O)=O)n1 (stereo unspecified) | 1000 | 250 | >1000 | 1000
13 | COc1cc(OC)nc(C(O)c2ccc(C)cc2NS(=O)(=O)C(F)F)n1 (stereo unspecified) | 1000 | 16 | 16 | 16
14 | CCCc1cccc(C(O)c2nc(OC)cc(OC)n2)c1NS(=O)(=O)C(F)F (stereo unspecified) | 16 | 63 | 63 | 16
15 | COc1cc(OC)nc(C(c2ccccc2NS(=O)(=O)C(F)(F)F)N(C)C)n1 (stereo unspecified) | >1000 | 250 | 16 | 63
16 | COc1cc(OC)nc(C(O)c2ccccc2NS(=O)(=O)C/C=C/Cl)n1 (stereo unspecified) | >1000 | 250 | 1000 | 250
17 | CCS(=O)(=O)Nc1ccccc1C(O)c1nc(OC)cc(OC)n1 (stereo unspecified) | 1000 | 1000 | >1000 | 1000
18 | COc1cc(OC)nc(C(O[Si](C)(C)C)c2ccccc2NS(=O)(=O)C(F)(F)F)n1 (stereo unspecified) | 1000 | 63 | 4 | 4
19 | COc1cc(OC)nc(C(O)c2ccccc2NS(C)(=O)=O)n1 (stereo unspecified) | 1000 | 63 | >1000 | 250
20 | COc1cc(OC)nc(C(OC)c2ccccc2NS(=O)(=O)C(F)(F)F)n1 (stereo unspecified) | 63 | 63 | 63 | 16

Row | SMILES | ED20 [1] [gAi/ha] | ED20 [2] [gAi/ha] | ED90 [3] [gAi/ha] | ED90 [4] [gAi/ha]
21 | COc1cc(OC)nc(C(O)c2cc(Cl)ccc2NS(=O)(=O)C(F)F)n1 (stereo unspecified) | >1000 | 1000 | >1000 | 1000
22 | COc1cc(OC)nc(C(O)c2cccc(F)c2NS(=O)(=O)C(F)F)n1 (stereo unspecified) | 250 | 16 | 4 | 4
23 | COc1cc(OC)nc(C(O)c2cccc(SC)c2NS(=O)(=O)C(F)F)n1 (stereo unspecified) | 250 | 63 | 63 | 63
24 | COCc1cccc(C(O)c2nc(OC)cc(OC)n2)c1NS(=O)(=O)C(F)F (stereo unspecified) | 16 | 63 | 4 | 4
25 | COc1cc(OC)nc(C(O)c2ccccc2NS(=O)(=O)CCl)n1 (stereo unspecified) | 1000 | 250 | 63 | 16
26 | COc1cc(OC)nc(C(O)c2ccccc2NS(=O)(=O)CC#N)n1 (stereo unspecified) | 1000 | 250 | 250 | 63
27 | COc1cc(OC)nc(C(O)c2ccccc2NS(=O)(=O)C(F)F)n1 (stereo unspecified) | 250 | 63 | 16 | 4
28 | COc1cc(OC)nc(C(O)c2ccc(Cl)cc2NS(=O)(=O)C(F)F)n1 (stereo unspecified) | 250 | 63 | 63 | 63
29 | COc1cc(OC)nc(C(O)c2cccc(Oc3ccccc3)c2NS(=O)(=O)C(F)F)n1 (stereo unspecified) | >1000 | 1000 | >1000 | 250
30 | CCOc1cccc(C(O)c2nc(OC)cc(OC)n2)c1NS(=O)(=O)C(F)F (stereo unspecified) | 63 | 16 | 16 | 16
31 | CC[S+]([O-])C(c1nc(OC)cc(OC)n1)c1ccccc1NS(=O)(=O)C(F)(F)F (stereo unspecified) | >1000 | 1000 | 63 | 1000
32 | CCCOc1cccc(C(O)c2nc(OC)cc(OC)n2)c1NS(=O)(=O)C(F)F (stereo unspecified) | 250 | 63 | 250 | 63
33 | COc1cc(OC)nc(C(O)c2c(F)cccc2NS(=O)(=O)C(F)F)n1 (stereo unspecified) | 63 | 16 | 16 | 16
34 | COc1cc(OC)nc(C(O)c2cccc(C)c2NS(=O)(=O)C(F)F)n1 (stereo unspecified) | 16 | 16 | 16 | 4
35 | COc1cc(OC)nc(C(O)c2c(Cl)cccc2NS(=O)(=O)C(F)F)n1 (stereo unspecified) | >1000 | 1000 | 250 | 64
36 | COc1cc(OC)nc(C(S)c2ccccc2NS(=O)(=O)C(F)(F)F)n1 (stereo unspecified) | >1000 | 250 | 63 | 63
37 | COc1cc(OC)nc(C(Cl)c2ccccc2NS(=O)(=O)C(F)(F)F)n1 (stereo unspecified) | 1000 | 63 | 4 | 16
38 | COc1cc(OC)nc(C(O)c2cccc(OC)c2NS(=O)(=O)C(F)F)n1 (stereo unspecified) | 16 | 4 | 63 | 16
39 | CCc1cccc(C(O)c2nc(OC)cc(OC)n2)c1NS(=O)(=O)C(F)F (stereo unspecified) | 16 | 63 | 4 | 16
